Data from PubChem BioAssay (NCI).
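How tested: cells in 96-well plates exposed to compound for 48 hours at five concentrations. Abbreviation: GI50, concentration required for 50% inhibition of growth. TGI denotes the concentration required for complete inhibition of growth.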

How the values were obtained:
Experiment in all cases: DTP human tumour cell line panel, 48 h
[1] = tested on: UO-31 renal
[2] = tested on: HOP-92 NSCLC
[3] = tested on: M14 melanoma
[4] = tested on: A498 renal
[5] = tested on: SN12C renal
[6] = tested on: ACHN renal
[7] = tested on: COLO 205 colon
[8] = tested on: MOLT-4 leukemia
[9] = tested on: KM12 colon
[10] = tested on: RPMI-8226 leukemia

Compound | TGI [1] [µM] | TGI [2] [µM] | TGI [3] [µM] | TGI [4] [µM] | TGI [5] [µM] | TGI [6] [µM] | TGI [7] [µM] | TGI [8] [µM] | TGI [9] [µM] | TGI [10] [µM] | GI50 [1] [µM] | GI50 [2] [µM] | GI50 [3] [µM] | GI50 [4] [µM] | GI50 [5] [µM] | GI50 [6] [µM] | GI50 [7] [µM] | GI50 [8] [µM] | GI50 [9] [µM] | GI50 [10] [µM]
COC(=O)CCC(=O)Nc1cc(C)ccc1C | > 100 | > 100 | > 100 | > 100 | > 100 | > 100 | > 100 | > 100 | > 100 | > 100 | – | – | – | – | – | – | – | – | – | –
Cc1c(-c2cc(-c3ccccc3)n[nH]c2=O)c2ccccc2n1C | > 100 | > 100 | > 100 | > 100 | > 100 | > 100 | > 100 | > 100 | > 100 | > 100 | – | – | – | – | – | – | – | – | – | –
COc1ccc(/C=N/C2=NNC(C)(c3ccccc3O)N2C(Cc2c[nH]c3ccccc23)C(=O)O)cc1 (centres undefined) | 11.2 | 5.17 | 8.77 | 9.03 | 11.3 | 14.7 | 4.44 | 13.9 | 10.2 | 7.65 | 1.62 | 1.31 | 2.35 | 3.1 | 3.11 | 3.02 | 1.86 | 3 | 2.6 | 2.14
CCN(CC)CCOc1ccccc1-n1c(C)ccc1-c1ccccc1 | 24.4 | 32.8 | 34.2 | 32 | 30.5 | 30.3 | 22.5 | 33.3 | 32.5 | 68.7 | 10.5 | 12.6 | 17 | 14.5 | 15.4 | 15.5 | 9.9 | 13.9 | 17.2 | 22.9
COC(=O)C(Br)(C(=O)OC)C(Br)C(Br)C(Br)c1ccccc1 (centres undefined) | 3.3 | 12.3 | 6.2 | 29.4 | 5.3 | 5.15 | 3.56 | 19.7 | 21 | 9.34 | 1.64 | 3.42 | 2.47 | 15.5 | 2.16 | 2.2 | 1.87 | 4.24 | 7.83 | 2.97
COc1ccccc1NC(=O)C1=C(C)NC(C)=C(C(=O)Nc2ccccc2OC)C1c1ccc(C2C(C(=O)Nc3ccccc3OC)=C(C)NC(C)=C2C(=O)Nc2ccccc2OC)cc1 | 14.9 | 9.45 | 3.34 | 15.5 | 3.69 | 10 | 10.2 | 17.8 | 3.38 | 8 | – | – | – | – | – | – | – | – | – | –
CCN1C(=O)N[C@H]2[C@@H]3NC(=O)c4ccc(Cl)n4[C@@H]3C[C@]21O | 24.1 | 7.69 | 2.66 | 6.16 | 9.13 | 12.4 | 1.56 | 2.37 | 33.7 | 2.08 | 3.19 | 1.04 | 0.352 | 1.82 | 0.42 | 1.5 | 0.369 | 0.346 | 1.06 | 0.363
O=C1Nc2cc(-c3ccc(O)cc3)ccc2/C1=C/c1ccc[nH]1 | 2.06 | 5.12 | > 100 | 5.05 | > 100 | 3.6 | 12.5 | > 32.5 | > 100 | > 20.3 | 0.13 | 1.14 | 0.0974 | 1.53 | 0.609 | 0.0504 | 2.78 | 0.158 | 0.247 | 0.486
NC1=C(/C(N)=N/O)C(c2ccccc2)c2ccc3ccccc3c2O1 (centres undefined) | > 84.3 | > 73.1 | 21.1 | 0.72 | 31 | 51.1 | 7.26 | > 100 | 36.4 | 28.9 | 0.348 | 0.579 | 0.208 | 0.168 | 0.603 | 0.458 | 0.456 | 0.496 | 0.302 | 0.38
COc1cc(NC(=O)c2cc3ccccc3cc2O)c(OC)cc1Cl | > 24.9 | 4.95 | > 100 | 5.04 | 6.36 | 5.23 | 8.51 | – | 7.25 | 1.18 | 1.16 | 1.56 | 2.74 | 1.96 | 1.87 | 1.81 | 2.44 | 2.27 | 2.52 | 0.153
COc1ncc(-c2ccc3ncnc(Nc4cccc(Cl)c4)c3c2)cc1NS(C)(=O)=O | 8.96 | 5.28 | 19.2 | 2.94 | 31.8 | > 100 | 7.36 | 5.21 | 16.1 | 9.24 | 0.354 | 0.472 | 2.81 | 0.605 | 1.76 | 0.485 | 1.75 | 1.49 | 3.55 | 2.19
COc1ccc2c(ccc3oc([N+](=O)[O-])cc32)c1 | 0.763 | 0.407 | 0.186 | 0.305 | 7.03 | 0.232 | 0.389 | 2.69 | 1.21 | 0.81 | 0.224 | 0.129 | 0.0454 | 0.0852 | 0.274 | 0.0274 | 0.172 | 0.0378 | 0.288 | 0.247
COc1cc(-c2cn(-c3ccc(F)cc3)c(=O)[nH]2)cc(OC)c1OC | > 100 | > 100 | > 100 | > 100 | > 100 | > 100 | > 100 | > 100 | > 100 | > 100 | > 100 | 79.4 | > 100 | > 100 | 9.93 | > 100 | > 100 | > 100 | > 100 | > 100
N#Cc1cc2c(=S)[nH]c(=S)[nH]c2nc1SCc1ccccc1 | > 100 | > 100 | > 100 | > 100 | > 100 | > 100 | > 100 | > 100 | > 100 | > 100 | 44.8 | 30.1 | 58.2 | 39.9 | 22.7 | 27.4 | 46.2 | 43.3 | 29.2 | 26.4
COC(=O)C[C@@H]1CC=CC(=O)/C1=C(O)/C=C/c1ccccc1 | 0.826 | 2.82 | 1.69 | 3.82 | 2.99 | 0.743 | 1.46 | 5.46 | 0.705 | 1.34 | 0.303 | 1.33 | 0.578 | 1.87 | 0.462 | 0.268 | 0.401 | 1.68 | 0.233 | 0.303
Nc1n[nH]c2cc(F)c([C@@H]3Nc4c(F)cc5[nH]ncc5c4[C@H]4C5CCC(C5)[C@@H]34)cc12 (some centres undefined) | 10.8 | 4.1 | 5.83 | 0.212 | 9.46 | 11.1 | 1.03 | 14.1 | 0.853 | 5.22 | 0.209 | 0.36 | 0.107 | 0.063 | 0.187 | 0.188 | 0.124 | 0.145 | 0.129 | 0.145
COc1ccc2cn3c4ccc(O)cc4[nH]c(=O)c3c2c1 | 15.1 | 25.8 | 13.7 | 17 | 16.2 | 15.9 | 2.87 | 16.7 | 14.9 | 7.93 | 0.456 | 11.6 | 0.08 | 0.404 | 0.267 | 0.0762 | 0.348 | 0.308 | 0.0846 | 0.308
COc1ccccc1C(=O)Nc1ccc(Cl)c(C(=O)OC(C)C)c1 | 27.9 | > 100 | > 93.3 | > 90.4 | > 100 | 28.4 | > 100 | > 76.5 | > 100 | 77.6 | – | – | – | – | – | – | – | – | – | –
C=C(C)[C@@H]1CC[C@]2(COC(=O)c3ccccc3C(=O)O)CC[C@]3(C)[C@H](CC[C@@H]4[C@@]5(C)CC[C@H](OC(=O)c6ccccc6C(=O)O)C(C)(C)[C@@H]5CC[C@]43C)[C@@H]12 | > 100 | 64.5 | > 100 | > 100 | > 100 | > 100 | > 100 | > 100 | > 100 | > 100 | 32.1 | 19.6 | 44.9 | 40.6 | 60.8 | 28 | > 100 | 56.7 | 8.47 | 14.8
